# In ChEMBL document CHEMBL1144189, “Novel and potent oxazolidinone antibacterials featuring 3-indolylglyoxamide substituents” (Bioorg Med Chem Lett, 2008):
# Legend:
# Enterococcus faecalis [1] = experiment: Antibacterial activity against vancomycin-resistant Enterococcus faecalis DRCC 153; type: functional
# Staphylococcus aureus [2] = experiment: Antibacterial activity against methicillin-susceptible Staphylococcus aureus DRCC 035; type: functional
# Enterococcus faecalis [3] = experiment: Antibacterial activity against vancomycin-susceptible Enterococcus faecalis DRCC 034; type: functional
# Staphylococcus aureus [4] = experiment: Antibacterial activity against methicillin-resistant Staphylococcus aureus DRCC 019; type: functional
# Enterococcus faecium = experiment: Antibacterial activity against vancomycin-resistant Enterococcus faecium DRCC 154; type: functional
# Haemophilus influenzae = experiment: Antibacterial activity against beta-lactamase deficient Haemophilus influenzae DRCC 433; type: functional
# Enterococcus faecalis [5] = experiment: Antibacterial activity against linezolid-resistant Enterococcus faecalis DRCC 632; type: functional
# Moraxella catarrhalis = experiment: Antibacterial activity against beta-lactamase deficient Moraxella catarrhalis DRCC 300; type: functional
# Staphylococcus aureus [6] = experiment: Antibacterial activity against linezolid-resistant Staphylococcus aureus DRCC 564; type: functional
# Staphylococcus aureus [7] = experiment: Antibacterial activity against Staphylococcus aureus DRCC 035 infected mouse systemic infection model administered orally for 1 day at 1 and 5 hrs post-infection and measured daily for 5 days; type: functional; settings: po
# [8] = Half life in Swiss albino mouse at 10 mg/kg, po; type: ADME, organism-based; parameters: dose 10 mg/kg, route oral; settings: in vivo
# [9] = Tmax in Swiss albino mouse at 10 mg/kg, po; type: ADME, organism-based; parameters: dose 10 mg/kg, route oral; settings: in vivo
# [10] = Drug elimination in Swiss albino mouse at 10 mg/kg, po; type: ADME, organism-based; parameters: dose 10 mg/kg, route oral; settings: in vivo
# [11] = AUC (0 to t) in Swiss albino mouse at 10 mg/kg, po; type: ADME, organism-based; parameters: dose 10 mg/kg, route oral; settings: plasma
# [12] = Cmax in Swiss albino mouse at 10 mg/kg, po; type: ADME, organism-based; parameters: dose 10 mg/kg, route oral; settings: in vivo
compound,measurement,setting,value
COc1ccc2[nH]cc(C(=O)C(=O)N3CCN(c4ccc(N5C[C@H](CNC(C)=O)OC5=O)cc4F)CC3)c2c1,MIC,Enterococcus faecalis [1],0.5 µg/mL
same,MIC,Staphylococcus aureus [2],2 µg/mL
same,MIC,Enterococcus faecalis [3],1 µg/mL
same,MIC,Staphylococcus aureus [4],1 µg/mL
same,MIC,Enterococcus faecium,1 µg/mL
same,MIC,Haemophilus influenzae,> 32 µg/mL
COC(=S)NC[C@H]1CN(c2ccc(N3CCN(C(=O)C(=O)c4c[nH]c5ccc(Br)cc45)CC3)c(F)c2)C(=O)O1,MIC,Enterococcus faecalis [5],2 µg/mL
same,MIC,Enterococcus faecalis [1],0.5 µg/mL
same,MIC,Moraxella catarrhalis,1 µg/mL
same,MIC,Staphylococcus aureus [6],2 µg/mL
same,MIC,Staphylococcus aureus [2],1 µg/mL
same,ED50,Staphylococcus aureus [7],> 30 mg/kg
same,MIC,Enterococcus faecalis [3],1 µg/mL
same,MIC,Staphylococcus aureus [4],1 µg/mL
same,MIC,Enterococcus faecium,1 µg/mL
same,MIC,Haemophilus influenzae,> 32 µg/mL
COC(=O)NC[C@H]1CN(c2ccc(N3CCN(C(=O)C(=O)c4c[nH]c5ccc(Br)cc45)CC3)c(F)c2)C(=O)O1,MIC,Enterococcus faecalis [5],32 µg/mL
same,MIC,Enterococcus faecalis [1],0.5 µg/mL
same,MIC,Moraxella catarrhalis,2 µg/mL
same,MIC,Staphylococcus aureus [6],16 µg/mL
same,MIC,Staphylococcus aureus [2],1 µg/mL
same,MIC,Enterococcus faecalis [3],1 µg/mL
same,MIC,Staphylococcus aureus [4],0.5 µg/mL
same,MIC,Enterococcus faecium,1 µg/mL
same,MIC,Haemophilus influenzae,> 32 µg/mL
O=C(C(=O)N1CCN(c2ccc(N3C[C@H](CNC(=O)C4CC4)OC3=O)cc2F)CC1)c1c[nH]c2ccc(Br)cc12,half-life,[8],1.13 h
same,MIC,Enterococcus faecalis [5],8 µg/mL
same,Tmax,[9],2 h
same,MIC,Enterococcus faecalis [1],1 µg/mL
same,k el,[10],0.000169 s⁻¹
same,MIC,Moraxella catarrhalis,4 µg/mL
same,MIC,Staphylococcus aureus [6],8 µg/mL
same,MIC,Staphylococcus aureus [2],1 µg/mL
same,AUC(0-t),[11],1260 ng·h/mL
same,ED50,Staphylococcus aureus [7],18.9 mg/kg
same,Cmax,[12],300 ng/mL
same,MIC,Enterococcus faecalis [3],2 µg/mL
same,MIC,Staphylococcus aureus [4],2 µg/mL
same,MIC,Enterococcus faecium,2 µg/mL
same,MIC,Haemophilus influenzae,> 32 µg/mL
O=C(C(=O)N1CCN(c2ccc(N3C[C@H](CNC(=O)C(Cl)Cl)OC3=O)cc2F)CC1)c1c[nH]c2ccc(Br)cc12,MIC,Enterococcus faecalis [5],4 µg/mL
same,MIC,Enterococcus faecalis [1],0.25 µg/mL
same,MIC,Moraxella catarrhalis,2 µg/mL
same,MIC,Staphylococcus aureus [6],4 µg/mL
same,MIC,Staphylococcus aureus [2],1 µg/mL
same,ED50,Staphylococcus aureus [7],> 30 mg/kg
same,MIC,Enterococcus faecalis [3],1 µg/mL
same,MIC,Staphylococcus aureus [4],1 µg/mL
same,MIC,Enterococcus faecium,0.5 µg/mL
same,MIC,Haemophilus influenzae,> 32 µg/mL
O=C(C(=O)N1CCN(c2ccc(N3C[C@H](Cn4ccnn4)OC3=O)cc2F)CC1)c1c[nH]c2ccc(Br)cc12,MIC,Enterococcus faecalis [5],16 µg/mL
same,MIC,Enterococcus faecalis [1],0.5 µg/mL
same,MIC,Moraxella catarrhalis,4 µg/mL
same,MIC,Staphylococcus aureus [6],8 µg/mL
same,MIC,Staphylococcus aureus [2],2 µg/mL
same,ED50,Staphylococcus aureus [7],28.9 mg/kg
same,MIC,Enterococcus faecalis [3],1 µg/mL
same,MIC,Staphylococcus aureus [4],0.5 µg/mL
same,MIC,Enterococcus faecium,0.5 µg/mL
same,MIC,Haemophilus influenzae,> 32 µg/mL
O=C(C(=O)N1CCN(c2ccc(N3C[C@H](COc4ccon4)OC3=O)cc2F)CC1)c1c[nH]c2ccc(Br)cc12,MIC,Enterococcus faecalis [5],32 µg/mL
same,MIC,Enterococcus faecalis [1],32 µg/mL
same,MIC,Moraxella catarrhalis,32 µg/mL
same,MIC,Staphylococcus aureus [6],32 µg/mL
same,MIC,Staphylococcus aureus [2],> 32 µg/mL
same,MIC,Enterococcus faecalis [3],32 µg/mL
same,MIC,Staphylococcus aureus [4],32 µg/mL
same,MIC,Enterococcus faecium,> 32 µg/mL
same,MIC,Haemophilus influenzae,> 32 µg/mL
CC(=O)NC[C@H]1CN(c2ccc(N3CCN(C(=O)C(=O)c4c[nH]c5ccc(C#N)cc45)CC3)c(F)c2)C(=O)O1,half-life,[8],1.19 h
same,Tmax,[9],3 h
same,MIC,Enterococcus faecalis [1],0.5 µg/mL
same,k el,[10],0.000161 s⁻¹
same,MIC,Staphylococcus aureus [2],1 µg/mL
same,AUC(0-t),[11],1900 ng·h/mL
same,ED50,Staphylococcus aureus [7],> 30 mg/kg
same,Cmax,[12],430 ng/mL
same,MIC,Enterococcus faecalis [3],1 µg/mL
same,MIC,Staphylococcus aureus [4],1 µg/mL
same,MIC,Enterococcus faecium,1 µg/mL
same,MIC,Haemophilus influenzae,> 32 µg/mL
CC(=O)NC[C@H]1CN(c2ccc(N3CCN(C(=O)C(=O)c4c[nH]c5ccc([N+](=O)[O-])cc45)CC3)c(F)c2)C(=O)O1,MIC,Enterococcus faecalis [1],1 µg/mL
same,MIC,Staphylococcus aureus [2],2 µg/mL
same,MIC,Enterococcus faecalis [3],1 µg/mL
same,MIC,Staphylococcus aureus [4],1 µg/mL
same,MIC,Enterococcus faecium,2 µg/mL
same,MIC,Haemophilus influenzae,> 32 µg/mL
CC(=O)NC[C@H]1CN(c2ccc(N3CCN(C(=O)C(=O)c4c(C)[nH]c5ccccc45)CC3)c(F)c2)C(=O)O1,MIC,Enterococcus faecalis [1],1 µg/mL
same,MIC,Staphylococcus aureus [2],2 µg/mL
same,MIC,Enterococcus faecalis [3],1 µg/mL
same,MIC,Staphylococcus aureus [4],1 µg/mL
same,MIC,Enterococcus faecium,2 µg/mL
same,MIC,Haemophilus influenzae,> 32 µg/mL
CC(=O)NC[C@H]1CN(c2ccc(N3CCN(C(=O)C(=O)c4cn(C)c5ccccc45)CC3)c(F)c2)C(=O)O1,MIC,Enterococcus faecalis [1],1 µg/mL
same,MIC,Staphylococcus aureus [2],2 µg/mL
same,MIC,Enterococcus faecalis [3],1 µg/mL
same,MIC,Staphylococcus aureus [4],1 µg/mL
same,MIC,Enterococcus faecium,2 µg/mL
same,MIC,Haemophilus influenzae,> 32 µg/mL
CC(=O)NC[C@H]1CN(c2ccc(N3CCN(C(=O)C(=O)c4c[nH]c5ncccc45)CC3)c(F)c2)C(=O)O1,half-life,[8],0.87 h
same,Tmax,[9],0.5 h
same,MIC,Enterococcus faecalis [1],0.5 µg/mL
same,k el,[10],0.000219 s⁻¹
same,MIC,Staphylococcus aureus [2],2 µg/mL
same,AUC(0-t),[11],3360 ng·h/mL
same,ED50,Staphylococcus aureus [7],> 30 mg/kg
same,Cmax,[12],1050 ng/mL
same,MIC,Enterococcus faecalis [3],1 µg/mL
same,MIC,Staphylococcus aureus [4],1 µg/mL
same,MIC,Enterococcus faecium,1 µg/mL
same,MIC,Haemophilus influenzae,> 32 µg/mL
CC(=O)NC[C@H]1CN(c2ccc(N3CCN(C(=O)C(=O)c4c[nH]c5ccc(Br)cc45)CC3)c(F)c2)C(=O)O1,half-life,[8],2.17 h
same,MIC,Enterococcus faecalis [5],8 µg/mL
same,Tmax,[9],2 h
same,MIC,Enterococcus faecalis [1],0.5 µg/mL
same,k el,[10],8.89e-05 s⁻¹
same,MIC,Moraxella catarrhalis,2 µg/mL
same,MIC,Staphylococcus aureus [6],8 µg/mL
same,MIC,Staphylococcus aureus [2],1 µg/mL
same,AUC(0-t),[11],2250 ng·h/mL
same,ED50,Staphylococcus aureus [7],27 mg/kg
same,Cmax,[12],680 ng/mL
same,MIC,Enterococcus faecalis [3],1 µg/mL
same,MIC,Staphylococcus aureus [4],0.5 µg/mL
same,MIC,Enterococcus faecium,1 µg/mL
same,MIC,Haemophilus influenzae,> 32 µg/mL
CC(=S)NC[C@H]1CN(c2ccc(N3CCN(C(=O)C(=O)c4c[nH]c5ccc(Br)cc45)CC3)c(F)c2)C(=O)O1,MIC,Enterococcus faecalis [5],2 µg/mL
same,MIC,Enterococcus faecalis [1],0.12 µg/mL
same,MIC,Moraxella catarrhalis,2 µg/mL
same,MIC,Staphylococcus aureus [6],2 µg/mL
same,MIC,Staphylococcus aureus [2],0.5 µg/mL
same,ED50,Staphylococcus aureus [7],> 30 mg/kg
same,MIC,Enterococcus faecalis [3],0.5 µg/mL
same,MIC,Staphylococcus aureus [4],0.25 µg/mL
same,MIC,Enterococcus faecium,0.25 µg/mL
same,MIC,Haemophilus influenzae,> 32 µg/mL
O=C(C(=O)N1CCN(c2ccc(N3C[C@H](CNC(=O)C(F)F)OC3=O)cc2F)CC1)c1c[nH]c2ccc(Br)cc12,MIC,Enterococcus faecalis [5],4 µg/mL
same,MIC,Enterococcus faecalis [1],0.25 µg/mL
same,MIC,Moraxella catarrhalis,2 µg/mL
same,MIC,Staphylococcus aureus [6],4 µg/mL
same,MIC,Staphylococcus aureus [2],2 µg/mL
same,ED50,Staphylococcus aureus [7],> 30 mg/kg
same,MIC,Enterococcus faecalis [3],1 µg/mL
same,MIC,Staphylococcus aureus [4],1 µg/mL
same,MIC,Enterococcus faecium,0.5 µg/mL
same,MIC,Haemophilus influenzae,> 32 µg/mL
CC(=O)NC[C@H]1CN(c2ccc(N3CCN(C(=O)C(=O)c4c[nH]c5ccccc45)CC3)c(F)c2)C(=O)O1,MIC,Enterococcus faecalis [1],1 µg/mL
same,MIC,Staphylococcus aureus [2],1 µg/mL
same,ED50,Staphylococcus aureus [7],19.4 mg/kg
same,MIC,Enterococcus faecalis [3],1 µg/mL
same,MIC,Staphylococcus aureus [4],1 µg/mL
same,MIC,Enterococcus faecium,1 µg/mL
same,MIC,Haemophilus influenzae,16 µg/mL
CC(=O)NC[C@H]1CN(c2ccc(N3CCOCC3)c(F)c2)C(=O)O1 [LINEZOLID],half-life,[8],1.37 h
same,MIC,Enterococcus faecalis [5],32 µg/mL
same,Tmax,[9],0.25 h
same,k el,[10],0.000142 s⁻¹
same,MIC,Moraxella catarrhalis,4 µg/mL
same,MIC,Staphylococcus aureus [6],32 µg/mL
same,AUC(0-t),[11],11000 ng·h/mL
same,ED50,Staphylococcus aureus [7],5.3 mg/kg
same,Cmax,[12],6310 ng/mL
same,MIC,Staphylococcus aureus [4],1 µg/mL
same,MIC,Enterococcus faecium,2 µg/mL
same,MIC,Haemophilus influenzae,8 µg/mL
